Assays:
A549 [1] = test: Antiproliferative activity against human A549 cells assessed as reduction in cell growth at 2 uM incubated for 72 hrs by CCK-8 assay relative to control; format: functional; conditions: A549, 72 h
HeLa [2] = test: Antiproliferative activity against human HeLa cells assessed as reduction in cell growth at 8 uM incubated for 72 hrs by CCK-8 assay relative to control; format: functional
SMMC-7721 [3] = test: Antiproliferative activity against human SMMC7721 cells assessed as reduction in cell growth at 8 uM incubated for 72 hrs by CCK-8 assay relative to control; format: functional; conditions: SMMC-7721, 72 h
SMMC-7721 [4] = test: Antiproliferative activity against human SMMC7721 cells assessed as reduction in cell growth at 2 uM incubated for 72 hrs by CCK-8 assay relative to control; format: functional; conditions: SMMC-7721, 72 h
A-375 [5] = test: Antiproliferative activity against human A375 cells assessed as reduction in cell growth at 2 uM incubated for 72 hrs by CCK-8 assay relative to control; format: functional; conditions: A-375, 72 h
HCT-116 [6] = test: Antiproliferative activity against human HCT116 cells assessed as reduction in cell growth at 2 uM incubated for 72 hrs by CCK-8 assay relative to control; format: functional; conditions: HCT-116, 72 h
A-375 [7] = test: Antiproliferative activity against human A375 cells assessed as reduction in cell growth at 8 uM incubated for 72 hrs by CCK-8 assay relative to control; format: functional; conditions: A-375, 72 h
HeLa [8] = test: Antiproliferative activity against human HeLa cells assessed as reduction in cell growth at 2 uM incubated for 72 hrs by CCK-8 assay relative to control; format: functional
HCT-116 [9] = test: Antiproliferative activity against human HCT116 cells assessed as reduction in cell growth at 8 uM incubated for 72 hrs by CCK-8 assay relative to control; format: functional; conditions: HCT-116, 72 h
A549 [10] = test: Antiproliferative activity against human A549 cells assessed as reduction in cell growth at 8 uM incubated for 72 hrs by CCK-8 assay relative to control; format: functional; conditions: A549, 72 h
SMMC-7721 [11] = test: Antiproliferative activity against human SMMC7721 cells assessed as reduction in cell growth incubated for 72 hrs by CCK-8 assay; format: functional, cell-based; conditions: SMMC-7721, 72 h

| Compound | inhibition at 2 µM (A549 [1]) | inhibition at 8 µM (HeLa [2]) | inhibition at 8 µM (SMMC-7721 [3]) | inhibition at 2 µM (SMMC-7721 [4]) | inhibition at 2 µM (A-375 [5]) | inhibition at 2 µM (HCT-116 [6]) | inhibition at 8 µM (A-375 [7]) | inhibition at 2 µM (HeLa [8]) | inhibition at 8 µM (HCT-116 [9]) | inhibition at 8 µM (A549 [10]) | IC50 (SMMC-7721 [11]) |
| --- | --- | --- | --- | --- | --- | --- | --- | --- | --- | --- | --- |
| Cc1ccc2nc(SCc3ccc(/C=C/C(=O)Nc4ccccc4N)cc3)n(C)c(=O)c2c1 | 26.7% | 55.3% | 57.6% | 34.1% | 9% | 7.2% | 22.8% | 25.5% | 18.6% | 38.7% | – |
| CCn1c(SCc2ccc(/C=C/C(=O)Nc3ccccc3N)cc2)nc2cc(Cl)ccc2c1=O | 31.6% | 21.8% | 28.4% | 12.1% | 12% | 12.1% | 22.9% | 8.7% | 28.4% | 45.7% | – |
| COc1ccc2c(=O)n(-c3cccc(Cl)c3)c(SCC(=O)Nc3ccccc3N)nc2c1 | 13% | 38.5% | 38.1% | 24.6% | 3.2% | 3.9% | 43.3% | 27.8% | 6.6% | 28.2% | – |
| Nc1ccccc1NC(=O)c1ccc(CSc2nc3cc(Br)ccc3c(=O)n2-c2cccc(Cl)c2)cc1 | 35.6% | 67% | 21% | 10.5% | 17.4% | 11.3% | 32.9% | 55% | 31.3% | 36.4% | – |
| Cn1c(SCc2ccc(/C=C/C(=O)Nc3ccccc3N)cc2)nc2cc(Br)ccc2c1=O | 1.9% | 30.3% | 15.2% | 13.2% | 4% | 9% | 6.3% | 17.7% | 19.4% | 14% | – |
| Cc1ccc2c(=O)n(C)c(SCc3ccc(/C=C/C(=O)Nc4ccccc4N)cc3)nc2c1 | 20.3% | 27.7% | 63.6% | 20.2% | 29% | 2.3% | 36.1% | 22.1% | 32.2% | 41.4% | 6.45 µM |
| CCCCn1c(SCc2ccc(/C=C/C(=O)Nc3ccccc3N)cc2)nc2cc(F)ccc2c1=O | 4.6% | 26.2% | 29% | 10.2% | 1.9% | 12% | 15.8% | 11.6% | 33.2% | 13.5% | – |
| Cc1cccc2nc(SCc3ccc(C(=O)Nc4ccccc4N)cc3)n(C)c(=O)c12 | 34.7% | 58.3% | 68.5% | 59.2% | 35.6% | 29.1% | 36.9% | 43.8% | 68.5% | 41.8% | 0.69 µM |
| COc1ccc2c(=O)n(C)c(SCc3ccc(/C=C/C(=O)Nc4ccccc4N)cc3)nc2c1 | 54.3% | 30.2% | 15.4% | 3.6% | 2.5% | 9.4% | 10.4% | 20.7% | 12.2% | 56.6% | – |
| CCn1c(SCc2ccc(C(=O)Nc3ccccc3N)cc2)nc2cc(Cl)ccc2c1=O | 3.6% | 43.4% | 34.2% | 18.4% | 12.7% | 7.3% | 49.9% | 39.1% | 7.4% | 13.7% | – |
| CCn1c(SCC(=O)Nc2ccccc2N)nc2cc(Cl)ccc2c1=O | 14.2% | 59.7% | 2.1% | 1.8% | 24.4% | 3.9% | 32.5% | 39.2% | 6.9% | 27.5% | – |
| COc1ccc2c(=O)n(-c3cccc(Cl)c3)c(SCc3ccc(/C=C/C(=O)Nc4ccccc4N)cc3)nc2c1 | 4.1% | 24.9% | 5.1% | 0.7% | 5.4% | 2.1% | 8.9% | 16.3% | 12.7% | 37.2% | – |
| Cn1c(SCc2ccc(/C=C/C(=O)Nc3ccccc3N)cc2)nc2cc(F)ccc2c1=O | 2.9% | 21.2% | 29.5% | 12.3% | 1.6% | 0.9% | 6.4% | 12.7% | 3.3% | 22.9% | – |
| CCCCn1c(SCc2ccc(C(=O)Nc3ccccc3N)cc2)nc2cc(Br)ccc2c1=O | 28.1% | 34.7% | 26.4% | 18.2% | 8.5% | 14.1% | 37.7% | 21.3% | 51.9% | 39.7% | – |
| Cc1cccc2c(=O)n(C)c(SCc3ccc(/C=C/C(=O)Nc4ccccc4N)cc3)nc12 | 34% | 56.6% | 36.4% | 26.3% | 9.3% | 4.5% | 13.7% | 31.6% | 5.8% | 43.8% | – |
| CCn1c(SCc2ccc(C(=O)Nc3ccccc3N)cc2)nc2cc(OC)ccc2c1=O | 28% | 44% | 45.8% | 32.2% | 20% | 5% | 31.4% | 42.1% | 6.7% | 30.3% | – |
| CCn1c(SCc2ccc(C(=O)Nc3ccccc3N)cc2)nc2cc(F)ccc2c1=O | 54.4% | 31% | 20.4% | 0.8% | 8.4% | 5.3% | 10.3% | 25.7% | 64.3% | 56.5% | – |

From ChEMBL document CHEMBL4393680, “Design, synthesis and biological evaluation of novel thioquinazolinone-based 2-aminobenzamide derivatives as potent histone deacetylase (HDAC) inhibitors” (Eur J Med Chem, 2019)
